Patent publication US20240368170A1, “CINNOLINE COMPOUNDS AND USES THEREOF” (Genentech, Inc., priority 2018, published 2024)

Legend:
[1] = biological target: HPK full length, T165E S171E (Homo sapiens (Human), UniProt Q92918, S171E/T165E); assay: HPK1-FL HTRF Enzymatic Assay ("HTRF"); format: biochemical; settings: H = HTRF; ATP 1 mM
Procedure: Example BI: HPK1-FL HTRF Enzymatic Assay (“HTRF”)
HPK-FL enzyme phosphorylates Biotin-SLP-76 substrate in the presence of ATP at 1 mM and varying concentrations of test compound. Product is detected by FRET using Eu-anti-pSLP76 Ab and SA-XL665. Also see www.cisbio.com/HTRF for additional HTRF technology information.
• Assay plate: White ProxiPlate 384 F (PerkinElmer cat #6008289) • Kinase: HPK full length double mutant • Substrate: Biotin-SLP76 • ATP: 100 mM ATP • BSG: 2% BSG • DMSO: DMSO (Sigma cat #34869-100ML) • Reaction Buffer: H2O/50 mM HEPES, pH 7.5/10 mM MgCl2/2 mM TCEP/0.01% Brij-35/0.01% BSG • Detection mix: Eu-anti-pSLP76/SA-XL665 (Cisbio, #610SAXAC)
To a 384 well Proxiplate with 80 nL compound or DMSO spotted on was added 4 μl/well kinase mix. The mixture was preincubated for 30 minutes and then 4 μl/well substrate mix was added. The solution was incubated for 60 min and then 4 μl/well detection mix was added. The solution was incubated for another 60 min. The plates were then loaded onto a Perkin Elmer Envision and the TR-FRET signal was measured at 615 and 665 nm. A ratio of […] was used to calculate the % activity at each concentration of compound.

[2] = biological target: HPK1 (Homo sapiens, UniProt Q92918); assay: HPK1 Lantha Binding Assay ("Lanth"); settings: L = Lanth
Procedure: Example B2: HPK1 Lantha Binding Assay (“Lanth”)
For the reference compound, the top concentration was 1 mM. To the plate was added 10 μL 2 mM staurosporine in wells J1-P1 and A24-H24. A 11 point 5-fold compound serial dilution was performed using the Bravo liquid handling platform. […] The compound plate was centrifuged at 2500 rpm for 1 min. From the compound plate was transferred 80n1 of the compounds into an assay plate using the Echo liquid handler system. One compound plate makes two assay plates. Each assay plate is sealed and stored in an N2 cabinet.
The following assay concentrations and times were used: 2 nM HPK1, 2 nM Eu-Anti-GST Ab, and 15 nM Tracer222, with 60 min incubation time.
For the binding assay, 4 μL 2×HPK1 and Eu-anti-GST antibody were added to each well of the assay plate using a Multidrop reagent dispenser. The solutions were incubated in a 23 C incubator for 1 h. To each well of the assay plate was added 4 μL 2× Tracer-222 using a Multidrop reagent dispenser. The solutions were again incubated in a 23° C. incubator for 1 h. The results of the assay were read using an Envision plate reader with the following parameters: TR_FRET, 340ex/615 and 665em; […].
Compound Ki was analyzed using Morrison ki fit model in XL-fit
[formula] [formula] • b. Parameters: • E=enzyme concentration • S=Tracer222 concentration, Kd=Tracer222 Kd
All measurements are reported using the same units (nM).
Exemplary compounds were tested in the binding assays.

[3] = test system: primary human pan T cells; assay: Human T-cell IL2 Induction Assay; format: cell-based; settings: anti-CD3/anti-CD28 stimulation
Procedure: Example B3: Human T-cell IL2 Induction Assay
Assay Principle: Anti-CD3 and anti-CD28 activates TCR signaling in primary human pan T cells leading to IL-2 promoter induction. Secreted IL-2 in cell culture supernatant is detected by electrochemiluminescence using a capture antibody against IL-2 and an anti-IL-2 antibody labeled with SULFO-tag. Also see www.mesoscale.com for additional electrochemiluminescence technology information.
Assay Procedure: Incubate primary human pan T cells with varying concentrations of test compounds for 30 minutes in a humidified incubator at 37° C. and 5% CO2. Transfer cells to a plate pre-coated with a fixed concentration of anti-human CD3 (determined separately for each donor lot) and add soluble anti-human CD28 (final concentration=1 μg/ml). Stimulate cells in a humidified incubator at 37° C. and 5% CO2 for 4 hours. Transfer 25 μl of supernatant to a MSD single spot plate pre-coated with an anti-human IL-2 antibody. Incubate MSD plate overnight at 4° C. with gentle shaking. Wash MSD plate 4× with wash buffer. […] Wash MSD plate 4× with wash buffer and add 150 μl 2×MSD read buffer. Read on an MSD instrument. […]
Exemplary compounds of Formula (I) were tested in the human T-cell IL-2 induction assays. The % increase measured for IL-2 in cells treated by the test compounds relative to untreated cells are provided in Table B2 for certain compounds.

Sequence of HPK full length, T165E S171E (Q92918 whole entry T165E/S171E): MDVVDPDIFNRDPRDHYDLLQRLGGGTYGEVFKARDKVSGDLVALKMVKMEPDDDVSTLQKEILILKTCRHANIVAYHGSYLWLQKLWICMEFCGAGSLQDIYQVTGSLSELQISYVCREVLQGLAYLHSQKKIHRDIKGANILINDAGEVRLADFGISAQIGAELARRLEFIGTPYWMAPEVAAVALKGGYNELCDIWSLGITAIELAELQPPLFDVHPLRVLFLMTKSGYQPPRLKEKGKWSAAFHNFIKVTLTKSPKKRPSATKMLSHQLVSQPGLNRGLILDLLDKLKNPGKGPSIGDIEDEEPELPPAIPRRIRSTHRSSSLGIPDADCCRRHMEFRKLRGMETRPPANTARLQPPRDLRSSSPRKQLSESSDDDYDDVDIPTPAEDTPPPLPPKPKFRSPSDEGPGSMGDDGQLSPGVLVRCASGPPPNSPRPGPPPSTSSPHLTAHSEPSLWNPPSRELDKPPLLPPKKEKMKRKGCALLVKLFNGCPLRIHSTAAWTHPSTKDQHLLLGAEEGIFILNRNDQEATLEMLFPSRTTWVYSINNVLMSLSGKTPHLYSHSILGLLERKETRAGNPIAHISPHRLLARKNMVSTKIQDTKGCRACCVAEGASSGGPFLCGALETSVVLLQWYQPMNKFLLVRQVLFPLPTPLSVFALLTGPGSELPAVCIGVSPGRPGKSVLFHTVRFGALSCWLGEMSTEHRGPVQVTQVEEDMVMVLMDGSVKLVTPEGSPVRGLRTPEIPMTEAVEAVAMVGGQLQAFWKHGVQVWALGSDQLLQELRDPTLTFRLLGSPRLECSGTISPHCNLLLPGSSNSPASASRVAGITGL

Row | SMILES | Ki [2] | other results
1 | Cc1c(N)cncc1-c1ccc2nnc(Nc3cc4n(n3)CC(=O)N(C(C)C)CC4)cc2c1 [Compound 28, 2-((6-(5-Amino-4-methylpyridin-3-yl)cinnolin-3-yl)amino)-6-isopropyl-5,6-dihydro-4H-pyrazolo[1,5-d][1,4]diazepin-7(8H)-one] | – | Ki [1]: 40 nM
2 | Cc1cc(N)ncc1-c1cc(N)c2nnc(NC(=O)[C@@H]3C[C@@H]3F)cc2c1 [Compound 5a, (1S,2S)—N-(8-Amino-6-(6-amino-4-methylpyridin-3-yl)cinnolin-3-yl)-2-fluorocyclopropanecarboxamide] | 15 nM | –
3 | Cn1cc(-c2cc(N)c3nnc(NC(=O)[C@@H]4C[C@H]4C#N)cc3c2)cn1 (racemic) [Compound 19, (+/−)-trans-N-(8-Amino-6-(1-methyl-1H-pyrazol-4-yl)cinnolin-3-yl)-2-cyanocyclopropanecarboxamide] | 14 nM | –
4 | Cc1c(N)cncc1-c1cc(N)c2nnc(Nc3cc4n(n3)CC(=O)N(C(C)C)CC4)cc2c1 [Compound 29, 2-((8-Amino-6-(5-amino-4-methylpyridin-3-yl)cinnolin-3-yl)amino)-6-isopropyl-5,6-dihydro-4H-pyrazolo[1,5-d][1,4]diazepin-7(8H)-one] | – | Ki [1]: 0.098 nM
5 | Cc1c(N)cncc1-c1cc(N)c2nnc(NC(=O)[C@H]3C[C@@H]3C#N)cc2c1 (single isomer, unassigned) [Compound 23b] | 4 nM | –
6 | Nc1cc(C2CC2)cc2cc(NC(=O)[C@@H]3C[C@@H]3F)nnc12 (racemic) [Compound 7, cis-N-(8-Amino-6-cyclopropylcinnolin-3-yl)-2-fluorocyclopropane carboxamide] | 600 nM | –
7 | CC(C)OC(=O)Nc1cc2cc(-c3cnn(C)c3)cc(N)c2nn1 [Compound 9, Isopropyl N-[8-amino-6-(1-methylpyrazol-4-yl)cinnolin-3-yl]carbamate] | 28 nM | –
8 | COc1ccncc1-c1cc(N)c2nnc(NC(=O)[C@@H]3C[C@@H]3F)cc2c1 [Compound 2a, (1S,2S)—N-(8-Amino-6-(4-methoxypyridin-3-yl)cinnolin-3-yl)-2-fluorocyclopropanecarboxamide] | 58 nM | –
9 | Cc1cnsc1-c1cc(N)c2nnc(NC(=O)[C@@H]3C[C@@H]3F)cc2c1 (racemic) [Compound 15, (+/−)-cis-N-[8-Amino-6-(4-methylisothiazol-5-yl)cinnolin-3-yl]-2-fluoro-cyclopropanecarboxamide] | 3 nM | –
10 | Cc1ccncc1-c1ccc2nnc(NC(=O)C3CC3)cc2c1 [Compound 27, N-(6-(4-Methylpyridin-3-yl)cinnolin-3-yl)cyclopropanecarboxamide] | 510 nM | –
11 | Cc1c(N)cncc1-c1cc(N)c2nnc(NC(=O)[C@@H]3C[C@H]3C#N)cc2c1 (single isomer, unassigned) [Compound 23a] | 0.7 nM | % IL-2 increase relative to untreated cells ([3]; assayed concentration 2.78 μM): 538%
12 | Cn1cc(-c2cc(N)c3nnc(NC(=O)N4CCCC4)cc3c2)cn1 [Compound 10, N-[8-Amino-6-(1-methylpyrazol-4-yl)cinnolin-3-yl]pyrrolidine-1-carboxamide] | 65 nM | –
13 | N#Cc1ccncc1-c1cc(N)c2nnc(NC(=O)[C@@H]3C[C@@H]3F)cc2c1 (racemic) [Compound 4, (+/−)-cis-N-(8-Amino-6-(4-cyanopyridin-3-yl)cinnolin-3-yl)-2-fluorocyclopropanecarboxamide] | 600 nM | –
14 | Cc1ccncc1-c1cc(Cl)c2nnc(NC(=O)C3CC3)cc2c1 [Compound 26, N-(8-Chloro-6-(4-methylpyridin-3-yl)cinnolin-3-yl)cyclopropanecarboxamide] | > 1000 nM | –
15 | CCc1ccncc1-c1cc(N)c2nnc(NC(=O)[C@@H]3C[C@@H]3F)cc2c1 (racemic) [Compound 21, (+/−)-cis-N-(8-Amino-6-(4-ethylpyridin-3-yl)cinnolin-3-yl)-2-fluorocyclopropanecarboxamide] | 4 nM | –
16 | CCc1ccncc1-c1cc(N)c2nnc(NC(=O)NC(C)C)cc2c1 [Compound 11, 1-[8-Amino-6-(4-ethyl-3-pyridyl)cinnolin-3-yl]-3-isopropyl-urea] | 8 nM | –
17 | CCc1cc(N)c2nnc(NC(=O)[C@@H]3C[C@@H]3F)cc2c1 [Compound 6a, (1S,2S)-N-(8-Amino-6-ethylcinnolin-3-yl)-2-fluorocyclopropanecarboxamide] | 440 nM | –
18 | Cc1cnccc1-c1cc(N)c2nnc(NC(=O)[C@@H]3C[C@@H]3F)cc2c1 [Compound 17a, (1S,2S)—N-(8-Amino-6-(3-methylpyridin-4-yl)cinnolin-3-yl)-2-fluorocyclopropanecarboxamide] | 53 nM | –
19 | Cc1ccncc1-c1cc(N)c2nnc(NC(=O)C3CC3)cc2c1 [Compound 25, N-(8-Amino-6-(4-methylpyridin-3-yl)cinnolin-3-yl)cyclopropanecarboxamide] | 1.9 nM | % IL-2 increase relative to untreated cells ([3]; assayed concentration 8.33 μM): 192%
20 | Nc1cc(-c2cnccc2C2CC2)cc2cc(NC(=O)[C@@H]3C[C@@H]3F)nnc12 (racemic) [Compound 22, (+/−)-cis-N-(8-Amino-6-(4-cyclopropylpyridin-3-yl)cinnolin-3-yl)-2-fluorocyclopropanecarboxamide] | 31 nM | –
21 | Cc1ccncc1-c1cc(C)c2nnc(NC(=O)C3CC3)cc2c1 [Compound 24, N-(8-Methyl-6-(4-methylpyridin-3-yl)cinnolin-3-yl)cyclopropanecarboxamide] | 260 nM | –
22 | Cn1cc(-c2cc(N)c3nnc(NC(=O)[C@@H]4C[C@@H]4F)cc3c2)cn1 [Compound 18a, (1S,2S)—N-(8-Amino-6-(1-methyl-1H-pyrazol-4-yl)cinnolin-3-yl)-2-fluorocyclopropanecarboxamide] | 15 nM | –
23 | CCc1ccncc1-c1cc(N)c2nnc(NC(=O)[C@@H]3C[C@H]3C#N)cc2c1 (racemic) [Compound 20, (+/−)-trans-N-(8-Amino-6-(4-ethylpyridin-3-yl)cinnolin-3-yl)-2-cyanocyclopropanecarboxamide] | 13 nM | –
